Measured values: publication PMC5915149, “The role of oxidative stress in activity of anticancer thiosemicarbazones” (Oncotarget, 2018)

Tests used:
[1] = test system: HCT116 cells; assay: Time dependent measurement of ROS level; assay type: cell-based, human; settings: 1 µM; 3, 6, 9, 12, 24 h
Procedure: To determine the intracellular levels of ROS, HCT116 cells were seeded onto black 96-well plates (Corning) at a density of 9,000 cells/well and incubated at 37° C. After an overnight incubation, the solutions of the tested compounds: 1a-c, 2 a-b, 3 a-c, Dp44mT (1 μM) and DOX (5 μM) were added and incubated for 3, 6, 9, 12, and 24 h in a kinetic experiment. The generation of ROS was measured using a CellROX® Green Reagent (Molecular Probes™). Additionally, the quantity of cells in each well was determined using Hoechst 33342 (Molecular Probes™). The solutions of the tested compounds were removed and 100 µL of CellROX Green Reagent and Hoechst 33342 at a final concentration of 5 μM were added to each well. Then, the cells were incubated for 30 min at 37° C. The fluorescence was measured using a multi-plate reader (Synergy 4, Bio Tek) at 485 nm excitation and a 520 nm emission for CellROX Green Reagent and a 345 nm excitation laser and a 485 nm emission filter for Hoechst 33342. The experiments were performed three to four times. ROS levels were expressed as the percentage of the control cells level.

[2] = test system: CAT; assay: mRNA expression (Real-Time PCR) of CAT; assay type: cell-based, human; settings: HCT116, TSC 1 µM, after the first 12 h
Procedure: (§1) The HCT116 cells were seeded in 3 cm Petri dishes (Nunc) at a density of 0.5·10^6 cells/well and incubated overnight. Next, the medium was removed and solutions of TSC (1 μM) and DOX (5 μM) were added. After 12 or 24 h, total RNA was isolated from the cells using TRIzol Reagent (Ambion) according to the manufacturer’s instructions. cDNA synthesis was performed with 5 μg of total RNA using a GoScript™ Reverse Transcriptase kit (Promega) and Oligo(dT)23 Primers (Sigma). The Real-Time PCR was performed with a CTX96 Touch™ Real-Time PCR Detection System (Biorad) in a 20 μL reaction volume. The reaction consisted of PowerUp™ SYBR® Green Master Mix (Applied Biosystems), a primer pair mix (0.5 μM each) and 1 μL of cDNA. All primer pair sequences were purchased from Sigma-Aldrich and are listed in Supplementary Table 2. The experiment was performed under the following conditions: initial denaturation at 95° C for 120 sec; followed by 40 denaturation cycles at 95° C, 15 sec; annealing (primer-specific temperature for 30 sec) and extension at 72° C for 60 sec. Data was analyzed based on a comparison of the expression of the target genes to a reference gene – β-actin, using the 2^–ΔΔCT method. The experiments were performed at least three times.

[3] = test system: Ndrg1; assay: mRNA expression (Real-Time PCR) of Ndrg1; assay type: cell-based, human; settings: HCT116, TSC 1 µM, 12 h
Procedure: as §1

[4] = test system: cdc2; assay: Western blot of cdc2; assay type: cell-based, human; settings: HCT116, 1 µM
Procedure: The HCT116 cells were seeded in 3 cm Petri dishes (Nunc) at a density of 0.5·10^6 cells/well and incubated overnight. The next day, solutions of TSC (1 μM) and DOX (5 μM) were added and the cells incubated for 24 or 48 h. Cells were harvested by trypsinization and washed with cold PBS. Next, the cells were centrifuged and suspended in an RIPA buffer (Thermo Scientific) containing Halt Protease Inhibitor Cocktail (Thermo Scientific), Halt Phosphatase Inhibitor Cocktail (Thermo Scientific) along with 0.5 M EDTA and lysed for 20 min on ice. Then, the lysates were sonicated, centrifuged at 10,000 rpm for 10 min at 4° C and the supernatants were collected for further analysis. The protein concentration was determined using a Micro BCA™ Protein Assay Kit (Thermo Scientific) according to the manufacturer’s instructions. Equal amounts of the proteins (20 μg) were electrophoresed on SDS-Page gels and transferred onto a nitrocellulose membranes. The membranes were blocked in 5% non-fat milk prepared in PBS containing 0.1% Tween-20 (TPBS) for 1 h. After blocking, the membranes were incubated with specific primary antibodies: cdc2 (#POH1, Cell Signaling), p21^Waf1/Cip1 (#12D1, Cell Signaling), p53 (#1C12, Cell Signaling) and β-Actin (#8H10D10, Cell Signaling) overnight at 4° C, then washed and incubated with horseradish peroxidase (HRP)-conjugated secondary antibodies for 1h at room temperature. All of antibodies were diluted 1:1000 in 5% milk in TPBS. Finally, the membranes were washed and incubated with a SuperSignal™ West Pico Chemiluminescent Substrate (Thermo Scientific). The chemiluminescence signals were captured using a ChemiDoc™ XRS+ System (BioRad). The experiments were performed at least three times. Densitometric analysis was performed using ImageJ 1.41 software (Wayne Rasband, National Institutes of Health, USA).

[5] = test system: HCT116 cells; assay: Cell cycle assay (Muse Cell-Cycle Kit); assay type: cell-based, human; settings: HCT116, TSC 1 µM, 48 h
Procedure: The HCT116 cells were seeded in 3 cm Petri dishes (Nunc) at a density of 0.25·10^6 cells/well and incubated at 37° C for 24 h. […] After a 48 h treatment, assays were performed using a Muse Cell-Cycle Kit (Millipore) according to the manufacturer’s instructions. Briefly, cells were collected, washed with cold PBS and centrifuged at 300 g. Then, the cells were fixed in ice cold 70% ethanol and stored at –20° C overnight. Afterwards, the cells were centrifuged and resuspended in 200 μL of Muse™ Cell Cycle Reagent and incubated for 30 min at room temperature in the dark. After staining, the cells were processed for cell cycle analysis using a Muse Cell Analyzer (Millipore). The experiments were performed at least three times.

[6] = test system: calf-thymus DNA (CT-DNA); assay: Intercalation, absorption spectra with CT-DNA; assay type: binding
Procedure: For the DNA binding studies, Calf-thymus DNA (CT-DNA) was purchased from Sigma Aldrich. The lyophilized CT-DNA was dissolved in 10 mM Tris-HCl, pH 7.9, mixed gently and left overnight at 4° C. The purity of the CT-DNA solution was determined by measuring the ratio of UV absorbance at 260 and 280 nm. […] Then, the concentration of CT-DNA was determined from the absorbance at 260 nm using an extinction coefficient of 6600 M^–1cm^–1. The tested TSC and DOX were dissolved in DMSO to a concentration of 8.35 mM, which was then used as the stock solution for preparing the various concentrations (25, 12.5, 6 and 3 µM) in 1 mL in 10 mM of Tris-HCl (pH 7.9). Afterwards, 18 µM CT-DNA was added to the prepared solutions, which were incubated for 1.5 h at 37° C with occasional vortexing. The absorption spectra were measured using a Hitachi U-2900 spectrophotometer in range of 200–500 nm. All absorption spectra were imported and compared in OriginPro 8.0.

[7] = test system: HCT116; design: method as in PMID 25329549; settings: 96 h incubation, MTS; cited from earlier work

S=C(NN=C(c1ccccn1)c1ccccn1)N1CCN(c2ccccc2)CC1 [Compound 3a]
level of ROS, normalized to untreated cells [1]: strongest effect | mRNA expression of CAT [2]: higher | mRNA expression of Ndrg1 [3]: significant increase | expression of cdc2 protein (densitometric analysis) [4]: increased the expression | cells in S phase [5]: 33–35% | cells in G2/M phase ([5]; untreated 7%): 17% | % hypochromism ([6]; bound to CT-DNA): 28.2% | Changes in absorbance ([6]; bound to CT-DNA): hypochromism | Δε ([6]; bound to CT-DNA): 4120.0 M⁻¹ cm⁻¹ | blue/red shift ([6]; wavelengths of maximum absorption, compound alone vs DNA-bound): 5 nm | IC50 [7]: 0.81 ± 0.13 nM
